Experimental data reported in PubChem BioAssay AID2060905 (Molecular Pharmacology Branch, DTP, NCI, 2025).
pIC50: −log10 of the molar value.

System: 282377-053-R-J1-PDC complex spheroid viability
Experiment: Anticancer human tumor 282377-053-R-J1-PDC patient-derived colon adenocarcinoma cell line growth inhibition [RAS]
Conditions: for pIC50: curve of first compound; for viability, T/C: stronger effect = lower value
Summary of the method: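 Multi-cell-type spheroids: tumor cells plus HUVEC endothelial cells and mesenchymal stem cells. RAS-pathway inhibitors were combined with targeted agents, each dosed in half-log steps down from clinical Cmax, or from 10 microM when Cmax was unknown.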

[1] = second compound 0.000949 µM, first compound 0.0316 µM
[2] = second compound 0.000949 µM, first compound 0.1 µM
[3] = second compound 0.000949 µM, first compound 0.316 µM
[4] = second compound 0.000949 µM, first compound 1 µM
[5] = second compound 0.000949 µM, first compound 3.16 µM
[6] = second compound 0.000949 µM, first compound 10 µM
[7] = second compound 0.003 µM, first compound 0.0316 µM
[8] = second compound 0.003 µM, first compound 0.1 µM
[9] = second compound 0.003 µM, first compound 0.316 µM
[10] = second compound 0.003 µM, first compound 1 µM
[11] = second compound 0.003 µM, first compound 3.16 µM
[12] = second compound 0.003 µM, first compound 10 µM
[13] = second compound 0.00949 µM, first compound 0.0316 µM
[14] = second compound 0.00949 µM, first compound 0.1 µM
[15] = second compound 0.00949 µM, first compound 0.316 µM
[16] = second compound 0.00949 µM, first compound 1 µM
[17] = second compound 0.00949 µM, first compound 3.16 µM
[18] = second compound 0.00949 µM, first compound 10 µM
[19] = second compound 0.03 µM, first compound 0.0316 µM
[20] = second compound 0.03 µM, first compound 0.1 µM
[21] = second compound 0.03 µM, first compound 0.316 µM
[22] = second compound 0.03 µM, first compound 1 µM
[23] = second compound 0.03 µM, first compound 3.16 µM
[24] = second compound 0.03 µM, first compound 10 µM
[25] = second compound 0.0949 µM, first compound 0.0316 µM
[26] = second compound 0.0949 µM, first compound 0.1 µM
[27] = second compound 0.0949 µM, first compound 0.316 µM
[28] = second compound 0.0949 µM, first compound 1 µM
[29] = second compound 0.0949 µM, first compound 3.16 µM
[30] = second compound 0.0949 µM, first compound 10 µM
[31] = second compound 0.3 µM, first compound 0.0316 µM
[32] = second compound 0.3 µM, first compound 0.1 µM
[33] = second compound 0.3 µM, first compound 0.316 µM
[34] = second compound 0.3 µM, first compound 1 µM
[35] = second compound 0.3 µM, first compound 3.16 µM
[36] = second compound 0.3 µM, first compound 10 µM
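Note: spheroids exposed to agents for seven days before readout.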
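Throughout, for viability, T/C: luminescence viability as percent of DMSO vehicle control wells.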

SMILES: CC(=O)OC12COC1CC(O)C1(C)C(=O)C(O)C3=C(C)C(OC(=O)C(O)C(NC(=O)OC(C)(C)C)c4ccccc4)CC(O)(C(OC(=O)c4ccccc4)C21)C3(C)C (stereo unspecified) + CCn1c(-c2cccnc2C(C)OC)c2c3cc(ccc31)N1CCOC(CC(NC(=O)C(C(C)C)N(C)C(=O)C3(F)CCN(C(=O)C#CC(C)(C)N(C)C)CC3)C(=O)N3CCCC(N3)C(=O)OCC(C)(C)C2)C1
- pIC50 (second compound 0.000949 µM): > 7.50
- pIC50 (second compound 0.003 µM): > 7.50
- pIC50 (second compound 0.00949 µM): > 7.50
- pIC50 (second compound 0.03 µM): > 7.50
- pIC50 (second compound 0.0949 µM): > 7.50
- pIC50 (second compound 0.3 µM): < 5.00
- viability, T/C [1]: 35%
- viability, T/C [2]: 39.9%
- viability, T/C [3]: 40.9%
- viability, T/C [4]: 50.3%
- viability, T/C [5]: 48.3%
- viability, T/C [6]: 109%
- viability, T/C [7]: 44.6%
- viability, T/C [8]: 44.1%
- viability, T/C [9]: 42.8%
- viability, T/C [10]: 43.7%
- viability, T/C [11]: 57.7%
- viability, T/C [12]: 92%
- viability, T/C [13]: 54.8%
- viability, T/C [14]: 43.4%
- viability, T/C [15]: 40.3%
- viability, T/C [16]: 42.8%
- viability, T/C [17]: 63.7%
- viability, T/C [18]: 84.7%
- viability, T/C [19]: 48.3%
- viability, T/C [20]: 39.7%
- viability, T/C [21]: 38.4%
- viability, T/C [22]: 52.5%
- viability, T/C [23]: 83.4%
- viability, T/C [24]: 94.6%
- viability, T/C [25]: 48.9%
- viability, T/C [26]: 51.1%
- viability, T/C [27]: 47.5%
- viability, T/C [28]: 55.4%
- viability, T/C [29]: 88%
- viability, T/C [30]: 117%
- viability, T/C [31]: 53.8%
- viability, T/C [32]: 54.5%
- viability, T/C [33]: 53.6%
- viability, T/C [34]: 66.4%
- viability, T/C [35]: 85.5%
- viability, T/C [36]: 119%

SMILES: NC1c2ccccc2OC12CCN(c1cnc3c(N4CCCc5ncccc54)n[nH]c3n1)CC2 (stereo unspecified) + CCn1c(-c2cccnc2C(C)OC)c2c3cc(ccc31)N1CCOC(CC(NC(=O)C(C(C)C)N(C)C(=O)C3(F)CCN(C(=O)C#CC(C)(C)N(C)C)CC3)C(=O)N3CCCC(N3)C(=O)OCC(C)(C)C2)C1
- pIC50 (second compound 0.000949 µM): < 5.00
- pIC50 (second compound 0.003 µM): < 5.00
- pIC50 (second compound 0.00949 µM): < 5.00
- pIC50 (second compound 0.03 µM): < 5.00
- pIC50 (second compound 0.0949 µM): < 5.00
- pIC50 (second compound 0.3 µM): < 5.00
- viability, T/C [1]: 103%
- viability, T/C [2]: 104%
- viability, T/C [3]: 99.5%
- viability, T/C [4]: 101%
- viability, T/C [5]: 110%
- viability, T/C [6]: 125%
- viability, T/C [7]: 101%
- viability, T/C [8]: 100%
- viability, T/C [9]: 94.7%
- viability, T/C [10]: 100%
- viability, T/C [11]: 104%
- viability, T/C [12]: 103%
- viability, T/C [13]: 96.5%
- viability, T/C [14]: 104%
- viability, T/C [15]: 97.9%
- viability, T/C [16]: 114%
- viability, T/C [17]: 98.4%
- viability, T/C [18]: 71.9%
- viability, T/C [19]: 91.9%
- viability, T/C [20]: 101%
- viability, T/C [21]: 116%
- viability, T/C [22]: 94.8%
- viability, T/C [23]: 86%
- viability, T/C [24]: 110%
- viability, T/C [25]: 91.6%
- viability, T/C [26]: 123%
- viability, T/C [27]: 104%
- viability, T/C [28]: 97.9%
- viability, T/C [29]: 99%
- viability, T/C [30]: 118%
- viability, T/C [31]: 92.6%
- viability, T/C [32]: 88.4%
- viability, T/C [33]: 95.5%
- viability, T/C [34]: 96.8%
- viability, T/C [35]: 125%
- viability, T/C [36]: 141%

SMILES: Nc1ccn(C2OC(CO)C(O)C2(F)F)c(=O)n1 (stereo unspecified) + CCn1c(-c2cccnc2C(C)OC)c2c3cc(ccc31)N1CCOC(CC(NC(=O)C(C(C)C)N(C)C(=O)C3(F)CCN(C(=O)C#CC(C)(C)N(C)C)CC3)C(=O)N3CCCC(N3)C(=O)OCC(C)(C)C2)C1
- pIC50 (second compound 0.000949 µM): < 6.00
- pIC50 (second compound 0.003 µM): < 6.00
- pIC50 (second compound 0.00949 µM): < 6.00
- pIC50 (second compound 0.03 µM): < 6.00
- pIC50 (second compound 0.0949 µM): < 6.00
- pIC50 (second compound 0.3 µM): < 6.00
- viability, T/C (second compound 0.000949 µM, first compound 0.00316 µM): 99.3%
- viability, T/C (second compound 0.000949 µM, first compound 0.01 µM): 105%
- viability, T/C [1]: 76%
- viability, T/C [2]: 92.6%
- viability, T/C [3]: 67.2%
- viability, T/C [4]: 57.9%
- viability, T/C (second compound 0.003 µM, first compound 0.00316 µM): 100%
- viability, T/C (second compound 0.003 µM, first compound 0.01 µM): 97.9%
- viability, T/C [7]: 99.2%
- viability, T/C [8]: 109%
- viability, T/C [9]: 81.1%
- viability, T/C [10]: 59%
- viability, T/C (second compound 0.00949 µM, first compound 0.00316 µM): 106%
- viability, T/C (second compound 0.00949 µM, first compound 0.01 µM): 97.9%
- viability, T/C [13]: 99.3%
- viability, T/C [14]: 96.8%
- viability, T/C [15]: 87.2%
- viability, T/C [16]: 66.1%
- viability, T/C (second compound 0.03 µM, first compound 0.00316 µM): 104%
- viability, T/C (second compound 0.03 µM, first compound 0.01 µM): 87.7%
- viability, T/C [19]: 112%
- viability, T/C [20]: 104%
- viability, T/C [21]: 103%
- viability, T/C [22]: 74.1%
- viability, T/C (second compound 0.0949 µM, first compound 0.00316 µM): 87%
- viability, T/C (second compound 0.0949 µM, first compound 0.01 µM): 98.8%
- viability, T/C [25]: 92.1%
- viability, T/C [26]: 74.3%
- viability, T/C [27]: 91.1%
- viability, T/C [28]: 68.5%
- viability, T/C (second compound 0.3 µM, first compound 0.00316 µM): 111%
- viability, T/C (second compound 0.3 µM, first compound 0.01 µM): 99.9%
- viability, T/C [31]: 92.8%
- viability, T/C [32]: 116%
- viability, T/C [33]: 90.9%
- viability, T/C [34]: 52.9%
